Assay results taken from US6028188A (priority 1994, dated 2000).
[mp] = methylphosphonate linkage

Assays:
splice acceptor site = assay: Tm of splice acceptor site oligomers; assay type: binding; conditions: Table XIII
Experimental: (§1) Annealing reaction mixtures contained equimolar amounts of Oligomer and RNA target Oligomer (2.4 μM total strand concentration), 20 mM potassium phosphate (pH 7.2), 100 mM sodium chloride, 0.1 mM EDTA and 0.03% potassium sarkosylate. The reaction mixtures were heated to 80° C. and then slowly cooled to 4° C. over about 4 to 6 hours. The annealed samples were then transferred to 1 cm quartz cuvettes and Tm was monitored by absorbance at 260 nm as a function of temperature using a Varian Cary Model 2E Spectrophotometer containing a temperature controlled 6×6 sample holder which interfaced with an IBM compatible PC computer. The temperature was varied from 5° C. to 80° C. at a ramp rate of 1° C./minute. The Tm for each melt profile is determined as the point corresponding to the maximum of the first derivative of the curve corresponding to absorbance versus temperature.
The results are given as percent gene expression relative to no-oligomer treatment of cells. The concentration is given above the data columns in micromolar. CAT levels were determined in triplicate as previously given and the experiment has been repeated multiple times. The Tm of the oligomers was determined as previously given.

pGL2 (luciferase) = assay type: cell-based; conditions: for percent gene expression relative to no-oligomer treatment, pGL2 (splicing, no match): 1.0 μM; for inhibition of luciferase expression (in words): pGL2
Experimental: All cultures were maintained at 37° C.
This assay was performed generally as follows according to standard procedures. 20 μl of lysate was combined with 100 μl of luciferase assay reagent (Promega) and counted in a scintillation counter (Packard) within 20 seconds (as recommended by Promega).
In order to determine that the effect against pG1035 was not due to non-specific interference of splicing in general, pGL2 was used as an additional control. pGL2 encodes the luciferase gene and contains an intron that is unrelated to the intron in pG1035.

pG1036 (wild-type CAT) = assay: CAT expression, non-splicing reporter pG1036, in COS-7 cells; conditions: for inhibition of expression of non-splicing CAT gene (in words): pG1036
pG1035 (SplicerCAT) = assay: Inhibition of CAT expression, splicing reporter pG1035, in COS-7 cells; conditions: for reduction of CAT expression: pG1035, 1.0 micromolar
[1] = tested on: complementary RNA targets; assay: Tm with complementary RNA target, oligomers 5'-TAG-CTT-CCT-TAG-CTC-CTG-3'; assay type: binding; conditions: Table XI
Experimental: as §1
The oligomers were synthesized according to methods set forth in the Examples herein and had mixed oligonucleoside sequences complementary to biologically relevant mRNA targets. Tm determinations were done according to the methods described in the proceeding Examples.

Substance	Tm (splice acceptor site) [°C]	percent gene expression relative to no-oligomer treatment, pGL2 (splicing, no match) (pGL2 (luciferase)) [%]	inhibition of luciferase expression (in words) (pGL2 (luciferase))	percent gene expression relative to no-oligomer treatment, pG1036 (non-splicing) (pG1036 (wild-type CAT); 0.1 μM) [%]	percent gene expression relative to no-oligomer treatment, pG1036 (non-splicing) (pG1036 (wild-type CAT); 0.3 μM) [%]	percent gene expression relative to no-oligomer treatment, pG1036 (non-splicing) (pG1036 (wild-type CAT); 1.0 μM) [%]	inhibition of expression of non-splicing CAT gene (in words) (pG1036 (wild-type CAT))	percent gene expression relative to no-oligomer treatment, pG1035 (splicing) (pG1035 (SplicerCAT); 0.1 μM) [%]	percent gene expression relative to no-oligomer treatment, pG1035 (splicing) (pG1035 (SplicerCAT); 0.3 μM) [%]	percent gene expression relative to no-oligomer treatment, pG1035 (splicing) (pG1035 (SplicerCAT); head printed 0.1) [%]	reduction of CAT expression (pG1035 (SplicerCAT)) [%]	Tm(° C. RNA) [1] [°C]
3373-1A: 24 mer, 2'-O-Me (MP(Rp)/DE), 5'-ccc tga gag aga gag aga ggt tcg [SEQ. ID. NO. 12] (CCCTGAGAGAGAGAGAGAGGTTCG; all 2'-O-methyl, backbone, methylation of C and T or U not given here; Rp methylphosphonate and diester linkages) [Oligomer 3373-1A]	84	127	not inhibited in any way	91	89	105	Neither oligomer inhibited the expression of the non-splicing CAT gene, pG1036, significantly	81	48	26	74	–
3373-1B: 18 mer 2'-O-Me (MP(Rp)/DE), 5'-gag aga gag aga ggt tcg-3' [SEQ. ID. NO. 13] (GAGAGAGAGAGAGGTTCG; all 2'-O-methyl, backbone, methylation of C and T or U not given here; Rp methylphosphonate and diester linkages) [Oligomer 3373-1B]	80	127	not inhibited in any way	95	85	81	Neither oligomer inhibited the expression of the non-splicing CAT gene, pG1036, significantly	59	31	10	90	–
1630-1: 5'-TAG-CTT-CCT-TAG-CTC-CTG-3' [SEQ. ID. NO. 5], Racemic MP (DNA TAGCTTCCTTAGCTCCTG; all [mp], sugars by position and methylation of C not given here) [Oligomer 1630-1]	–	–	–	–	–	–	–	–	–	–	–	39.0
